Measurements: patent US20240408064A1, “RAS INHIBITORS, COMPOSITIONS AND METHODS OF USE THEREOF” (GENETOLEAD INC., priority 2021, published 2024)
Entries after “also recorded” stand apart in the source; their conditions may differ.

Legend:
HRas^G12V [1] = target: T1, HRas^G12V (Homo sapiens (Human), UniProt P01112, G12V); test: 19F T2-CPMG NMR score; format: binding
How it was run: (§1)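 In the T2-CPMG experiment, echo spacing was 1 ms and total delays ranged over eight values from 1 to 800 ms. Both scores come from 600 MHz NMR of 50 μM HRas G12V mixed with fragment pools at 240 μM each, in phosphate buffer pH 7.4 with NaCl, MgCl2 and TCEP-d16. Ligand-observed 19F spectra were recorded with 1H decoupling, 64 scans and a 5 s relaxation delay.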

HRas^G12V [2] = target: T1, HRas^G12V; test: 19F DLB (ligand-observed 19F NMR) score; format: binding; design: scale not given here
How it was run: as §1

HRas^G12V [3] = target: T1, HRas^G12V; test: Overall binding/activity in the various assays (NMR consensus binding)
Method: Since the fragment library was curated using phosphate buffer, 25 mM sodium phosphate pH 7.4, 150 mM NaCl, 5 mM MgCl2, 1 mM TCEP-d16, 10% D2O Fresh TCEP was used for experiments. Screening was performed using ^1H-decoupled 1D ^19F experiment Bruker experiment (zgfhigqn.2) with 64 scans and a relaxation delay of 5 seconds. 50 μM HRas^G12V and 240 μM of each fragment in pools (mixtures) were used.
Hit confirmation was performed using the same ^19F experiment as the screen. Ligand-observed 1D ^1H, protein-observed 1D ^1H, ^1H T2-CPMG as well as Saturation Transfer Difference (STD) experiments were also run on the same samples. Ligand-observed 1D ^1H was run using the standard Bruker sequence with excitation sculpting (zgesgp) with a relaxation delay of 10 seconds and 16 scans per spectrum. Protein-observed 1D ^1H was performed using the same sequence with a relaxation delay of 1 second and 256 scans in order to increase the signal-to-noise of the protein resonances, while keeping the experimental time relatively short. The ^1H T2-CPMG experiment employed a modified version of the Bruker 1D ^1H zgesgp experiment with the addition of a CPMG pulse train after the first 90° excitation pulse. Total duration for each spin echo was fixed at 1 ms (τ=500 μs), while the number of echoes in the pulse train was varied according to the total time (T). The number of scans for each spectrum was 4 and eight delay times were run on each sample, ranging from 1 ms to 800 ms.
STD experiments consisted of two independent spectra with offsets of 0 ppm (on resonance) and −20 ppm (off resonance). […] 160 scans were acquired for each spectrum.
The results obtained with the compounds in the various assays described above are depicted in Table 21.
Because of its power to probe the intrinsically weak interactions (Kd) between targets and low-molecular weight fragments, NMR fragment-based lead discovery (FBLD) is a very useful biophysical method in early stage drug discovery, especially for challenging target proteins; including those with shallow binding pockets. Since FBLD screens are performed using low-molecular weight compounds (fragments) with lower structural complexity, the same chemical space can be covered using a smaller number of drug-like fragments versus use of large libraries of higher-molecular weight lead-like compounds as in high throughput screening (HTS) campaigns. Therefore, FBLD has a much higher hit rate than HTS using only several hundred to several thousand compounds in comparison with approximately 1 million compounds for HTS. Also, the small size of the compounds screened in FBLD means a better chance to fully match the interactions with small or transient pockets within the target protein, where these less tractable pockets cannot be accessed with standard classical HTS methods. […] We expect this methodology to be more advantageous than classical HTS methods for expediting the time from hit to lead (H2L) and allows for rapid access to high quality leads with lower attrition rates in subsequent lead optimization (LO) campaigns toward pre-clinical candidate selection. FBLD screening by NMR involves a “consensus binding” approach where several distinct NMR experiments (DLB, STD, CPMG) are applied along with a free-state aggregation detection method (T2-CPMG) to rank the compounds for their affinity to the receptor (HRAS in this case) whilst simultaneously monitoring the solution behavior and critical quality attributes of each compound. The latter helps to eliminate artifact binders which are highly problematic. We performed a fluorine screen involving 461 compounds that were derived from a highly curated fragment library. Moreover, two-dimensional ^15N HSQC NMR was also used to validate ligand-binding sites on the target protein. In addition, we employed protein-detected biophysical measurements were employed to determine fragment binding affinities to the target protein (Kd) by HSQC NMR. […]

Row | Compound | 19F T2-CPMG Score (HRas^G12V [1]) | 19F DLB Score (HRas^G12V [2]) | Binding to HRas^G12V (in words) (HRas^G12V [3]) | Activity ranking on HRas^G12V (in words) (HRas^G12V [3])
1 | CC1CN(C(=O)Cc2cc3ccc(F)cc3[nH]2)C1 [Compound 10143, 2-(6-fluoro-1H-indol-2-yl)-1-(3-methylazetidin-1-yl)ethan-1-one] | 0.9 | 0.89 | low or no binding | 
2 | CCOC(=O)C(CC(C)C)NC(=O)Cc1c[nH]c2cc(F)ccc12 (stereo not drawn) [Compound 10093] | 4.89 | 1.35 | low or no binding | 
3 | O=C1CC(c2c[nH]c3cc(F)ccc23)C(=O)N1 (stereo not drawn) [Compound 11006] | 24.24 | 3.43 |  | More active; also recorded: Most active
4 | CCOC(=O)[C@@H]1CN(C(=O)Cc2c[nH]c3cc(F)ccc23)CCO1 [Compound 10168] | 4.84 | 1.43 | low or no binding | 
5 | O=C(Cc1c[nH]c2cc(F)ccc12)NCCc1cccnc1 [Compound 10029] | 1.2 | 1.19 | low or no binding | 
6 | CN(C)CC(=O)Nc1ccc(NC(=O)Cc2c[nH]c3cc(F)ccc23)cc1 [Compound 11008] | 38.4 | 6.41 |  | More active; also recorded: Most active
7 | COC[C@@H]1CN(C(=O)Cc2c[nH]c3cc(F)ccc23)CCO1 [compound 10155] | 8.16 | 1.49 | low or no binding | 
8 | CC(=O)N1CCC[C@H](NC(=O)Cc2c[nH]c3cc(F)ccc23)C1 [Compound 10073, (S)—N-(1-acetylpiperidin-3-yl)-2-(6-fluoro-1H-indol-3-yl)acetamide] | 2.3 | 1.17 | low or no binding | 
9 | CN(C)CC(=O)Nc1ccccc1NC(=O)Cc1c[nH]c2cc(F)ccc12 [Compound 11014] | 3.32 | 1.44 | low or no binding | 
10 | O=C(Cc1c[nH]c2cc(F)ccc12)NCCN1CCOCC1 [Compound 10015] | 7.79 | 1.57 | low or no binding | 
11 | CS(=O)(=O)NCCC(=O)NCCc1c[nH]c2cc(F)ccc12 [Compound 10082, N-(2-(6-fluoro-1H-indol-3-yl)ethyl)-3-(methylsulfonamido)propanamide] | 2.61 | 1.22 | low or no binding | 
12 | O=C(Cc1c[nH]c2cc(F)ccc12)NCCc1ccc(F)cc1 [Compound 10031] | 1.34 | 1.13 | low or no binding | 
13 | CN1CCN(C(=O)Cc2c[nH]c3cc(F)ccc23)[C@H](C(=O)O)C1 [Compound 10158] | 2.14 | 0.93 | low or no binding | 
14 | O=C(O)[C@H]1CN(C(=O)Cc2c[nH]c3cc(F)ccc23)CCO1 [Compound 10153] | 3.22 | 1.39 | low or no binding | 
15 | CC(=O)NC[C@@H]1CN(C(=O)Cc2c[nH]c3cc(F)ccc23)CCO1 [compound 10164] | 5.59 | 1.61 | low or no binding | 
16 | CN1CCN(C(=O)Cc2c[nH]c3cc(F)ccc23)C[C@@H]1C(=O)O [Compound 10173] | 3.79 | 1.33 | low or no binding | 

Row | Compound | 19F T2-CPMG Score (HRas^G12V [1]) | 19F DLB Score (HRas^G12V [2]) | Binding to HRas^G12V (in words) (HRas^G12V [3]) | Activity ranking on HRas^G12V (in words) (HRas^G12V [3])
17 | O=C(CN1CCCCC1)c1c[nH]c2cc(F)ccc12 [compound 10076] | 37.86 | 3.34 |  | More active
18 | CC1CN(C(=O)Cc2c[nH]c3cc(F)cnc23)C1 [Compound 10174, 2-(6-fluoro-1H-pyrrolo[3,2-b]pyridin-3-yl)-1-(3-methylazetidin-1-yl) ethan-1-one] | 2.32 | 1.14 | low or no binding | 
19 | CCOC(=O)[C@H]1COCCN1C(=O)Cc1c[nH]c2cc(F)ccc12 [Compound 10121] | 5.23 | 1.26 | low or no binding | 
20 | O=C(O)C1CCN1C(=O)Cc1c[nH]c2cc(F)ccc12 (stereo not drawn) [Compound 10102, 1-(2-(6-fluoro-1H-indol-3-yl)acetyl) azetidine-2-carboxylic acid] | 2.65 | 1.06 | low or no binding | 
21 | CC(=O)N1CCC[C@@H]1C(=O)NCCc1c[nH]c2cc(F)ccc12 [Compound 10044] | 0.95 | 1.07 | low or no binding | 
22 | O=C(O)[C@@H]1COCCN1C(=O)Cc1c[nH]c2cc(F)ccc12 [Compound 10150, (S)-4-(2-(6-fluoro-1H-indol-3-yl)acetyl)morpholine-3-carboxylic acid] | 2.07 | 1.24 | low or no binding | 
23 | O=C(O)[C@H]1COCCN1C(=O)Cc1c[nH]c2cc(F)ccc12 [Compound 10152] | 3.54 | 1.03 | low or no binding | 
24 | COC(=O)[C@H]1CN(C(=O)Cc2c[nH]c3cc(F)ccc23)CCN1C [Compound 10156, Methyl (R)-4-(2-(6-fluoro-1H-indol-3-yl)acetyl)-1-methylpiperazine-2-carboxylate] | 3.43 | 1.42 | low or no binding | 
25 | COCC(=O)Nc1cccc(NC(=O)Cc2c[nH]c3cc(F)ccc23)c1 [Compound 10080, 2-(6-fluoro-1H-indol-3-yl)-N-(3-(2-methoxyacetamido)phenyl)acetamide] | −1.66 | 2.67 | low or no binding | 
26 | C[C@@H](NC(=O)Cc1c[nH]c2cc(F)ccc12)C(=O)O [Compound 10083] | 2.8 | 1.14 | low or no binding | 
27 | O=C(O)CN1CCC(NC(=O)Cc2c[nH]c3cc(F)ccc23)CC1 [Compound 10108, 2-(4-(2-(6-fluoro-1H-indol-3-yl)acetamido)piperidin-1-yl)acetic acid] | 5.72 | 1.34 | low or no binding | 
28 | CC1(C)OC(=O)C(C(c2ccccc2F)c2c[nH]c3cc(F)ccc23)C(=O)O1 (stereo not drawn) [Compound 11041] | 3.61 | 1.65 | low or no binding | 
29 | O=C(O)CC(c1ccc(O)cc1)c1c[nH]c2cc(F)ccc12 (stereo not drawn) [Compound 11055] |  | Non conclusive |  | More active
30 | O=C(O)CC(c1cccc(O)c1)c1c[nH]c2cc(F)ccc12 (stereo not drawn) [Compound 11054] |  | Non conclusive |  | More active
31 | O=C(O)C[C@H](c1ccccc1F)c1c[nH]c2cc(F)ccc12 (single isomer, unassigned) [Compound 11052] |  | Non conclusive |  | More active
